Measured values as given in paper PMC2150390, “High-dose cyclosporin with etoposide--toxicity and pharmacokinetic interaction in children with solid tumours” (British Journal of Cancer, 1998).

Experiment: Etoposide pharmacokinetics with and without cyclosporin (plasma HPLC, non-compartmental analysis)
Type: in vivo, human
Conditions: for Clearance Cl+ / Half-life t1/2+ / Area under drug concentration curve AUC+: with cyclosporin; for Clearance Cl+ / Half-life t1/2+ / Area under drug concentration curve AUC+ / Clearance Cl- / Half-life t1/2- / Area under drug concentration curve AUC-: etoposide 150 mg m-2 over 1 hour; for Area under drug concentration curve AUC+ / Area under drug concentration curve AUC-: plasma HPLC, non-compartmental; for Median area under the concentration time curve for etoposide: etoposide 150 mg m-2 i.v.
[1] = Table 3, patient 1, cyclosporin schedule A
[2] = Table 3, patient 1, cyclosporin schedule A, without cyclosporin
[3] = Table 3, patient 2, cyclosporin schedule A
[4] = Table 3, patient 2, cyclosporin schedule A, without cyclosporin
[5] = Table 3, patient 4, cyclosporin schedule A
[6] = Table 3, patient 4, cyclosporin schedule A, without cyclosporin
[7] = Table 3, patient 5, cyclosporin schedule A
[8] = Table 3, patient 5, cyclosporin schedule A, without cyclosporin
[9] = Table 3, patient 6, cyclosporin schedule A
[10] = Table 3, patient 6, cyclosporin schedule A, without cyclosporin
[11] = Table 3, patient 7, cyclosporin schedule A
[12] = Table 3, patient 7, cyclosporin schedule A, without cyclosporin
[13] = Table 3, patient 8, cyclosporin schedule A
[14] = Table 3, patient 8, cyclosporin schedule A, without cyclosporin
[15] = Table 3, patient 9, cyclosporin schedule B
[16] = Table 3, patient 9, cyclosporin schedule B, without cyclosporin
[17] = Table 3, patient 10, cyclosporin schedule B
[18] = Table 3, patient 10, cyclosporin schedule B, without cyclosporin
[19] = Table 3, patient 11, cyclosporin schedule B
[20] = Table 3, patient 11, cyclosporin schedule B, without cyclosporin
[21] = Table 3, patient 13, cyclosporin schedule B
[22] = Table 3, patient 13, cyclosporin schedule B, without cyclosporin
[23] = Table 3, patient 14, cyclosporin schedule A
[24] = Table 3, patient 14, cyclosporin schedule A, without cyclosporin
[25] = Table 3, patient 15, cyclosporin schedule A
[26] = Table 3, patient 15, cyclosporin schedule A, without cyclosporin
[27] = Table 3, patient 17, cyclosporin schedule A
[28] = Table 3, patient 17, cyclosporin schedule A, without cyclosporin
[29] = Table 3, patient 18, cyclosporin schedule A
[30] = Table 3, patient 18, cyclosporin schedule A, without cyclosporin

- Mean change in etoposide AUC with cyclosporin (15 patients, paired, P < 0.001): +89%
- Mean change in etoposide clearance with cyclosporin (15 patients, paired, P < 0.001): -48%
- Clearance Cl+ [1]: 15.7 mL/min
- Half-life t1/2+ [1]: 5.08 h
- Area under drug concentration curve AUC+ [1]: 14.6 mg·min/mL
- Clearance Cl- [2]: 28.5 mL/min
- Half-life t1/2- [2]: 3.27 h
- Area under drug concentration curve AUC- [2]: 8.1 mg·min/mL
- Clearance Cl+ [3]: 8.6 mL/min
- Half-life t1/2+ [3]: 9.28 h
- Area under drug concentration curve AUC+ [3]: 26.2 mg·min/mL
- Clearance Cl- [4]: 22.0 mL/min
- Half-life t1/2- [4]: 3.43 h
- Area under drug concentration curve AUC- [4]: 10.2 mg·min/mL
- Clearance Cl+ [5]: 18.6 mL/min
- Half-life t1/2+ [5]: 5.75 h
- Area under drug concentration curve AUC+ [5]: 16.9 mg·min/mL
- Clearance Cl- [6]: 36.5 mL/min
- Half-life t1/2- [6]: 5.08 h
- Area under drug concentration curve AUC- [6]: 8.6 mg·min/mL
- Clearance Cl+ [7]: 15.2 mL/min
- Half-life t1/2+ [7]: 3.15 h
- Area under drug concentration curve AUC+ [7]: 7.9 mg·min/mL
- Clearance Cl- [8]: 30.2 mL/min
- Half-life t1/2- [8]: 2 h
- Area under drug concentration curve AUC- [8]: 3.8 mg·min/mL
- Clearance Cl+ [9]: 11.9 mL/min
- Half-life t1/2+ [9]: 3.82 h
- Area under drug concentration curve AUC+ [9]: 8.8 mg·min/mL
- Clearance Cl- [10]: 15.9 mL/min
- Half-life t1/2- [10]: 2.75 h
- Area under drug concentration curve AUC- [10]: 6.6 mg·min/mL
- Clearance Cl+ [11]: 10.8 mL/min
- Half-life t1/2+ [11]: 4.72 h
- Area under drug concentration curve AUC+ [11]: 10.7 mg·min/mL
- Clearance Cl- [12]: 21.9 mL/min
- Half-life t1/2- [12]: 1.72 h
- Area under drug concentration curve AUC- [12]: 5.3 mg·min/mL
- Clearance Cl+ [13]: 9.9 mL/min
- Half-life t1/2+ [13]: 6.9 h
- Area under drug concentration curve AUC+ [13]: 10.1 mg·min/mL
- Clearance Cl- [14]: 27.2 mL/min
- Half-life t1/2- [14]: 2.05 h
- Area under drug concentration curve AUC- [14]: 3.6 mg·min/mL
- Clearance Cl+ [15]: 10.0 mL/min
- Half-life t1/2+ [15]: 4.9 h
- Area under drug concentration curve AUC+ [15]: 16.4 mg·min/mL
- Clearance Cl- [16]: 25.8 mL/min
- Half-life t1/2- [16]: 3.47 h
- Area under drug concentration curve AUC- [16]: 6.4 mg·min/mL
- Clearance Cl+ [17]: 11.6 mL/min
- Half-life t1/2+ [17]: 6.93 h
- Area under drug concentration curve AUC+ [17]: 14.2 mg·min/mL
- Clearance Cl- [18]: 28.6 mL/min
- Half-life t1/2- [18]: 1.37 h
- Area under drug concentration curve AUC- [18]: 5.8 mg·min/mL
- Clearance Cl+ [19]: 16.2 mL/min
- Half-life t1/2+ [19]: 5.23 h
- Area under drug concentration curve AUC+ [19]: 14.3 mg·min/mL
- Clearance Cl- [20]: 32.5 mL/min
- Half-life t1/2- [20]: 2.93 h
- Area under drug concentration curve AUC- [20]: 7.4 mg·min/mL
- Clearance Cl+ [21]: 7.8 mL/min
- Half-life t1/2+ [21]: 4.93 h
- Area under drug concentration curve AUC+ [21]: 13.1 mg·min/mL
- Clearance Cl- [22]: 15.3 mL/min
- Half-life t1/2- [22]: 2.47 h
- Area under drug concentration curve AUC- [22]: 6.7 mg·min/mL
- Clearance Cl+ [23]: 14.3 mL/min
- Half-life t1/2+ [23]: 6.68 h
- Area under drug concentration curve AUC+ [23]: 15.8 mg·min/mL
- Clearance Cl- [24]: 29.3 mL/min
- Half-life t1/2- [24]: 2.57 h
- Area under drug concentration curve AUC- [24]: 7.7 mg·min/mL
- Clearance Cl+ [25]: 22.6 mL/min
- Half-life t1/2+ [25]: 6.78 h
- Area under drug concentration curve AUC+ [25]: 12.9 mg·min/mL
- Clearance Cl- [26]: 38.1 mL/min
- Half-life t1/2- [26]: 4.3 h
- Area under drug concentration curve AUC- [26]: 7.7 mg·min/mL
- Clearance Cl+ [27]: 20.2 mL/min
- Half-life t1/2+ [27]: 6.12 h
- Area under drug concentration curve AUC+ [27]: 13.4 mg·min/mL
- Clearance Cl- [28]: 29.1 mL/min
- Half-life t1/2- [28]: 3.85 h
- Area under drug concentration curve AUC- [28]: 9.3 mg·min/mL
- Clearance Cl+ [29]: 10.1 mL/min
- Half-life t1/2+ [29]: 11.4 h
- Area under drug concentration curve AUC+ [29]: 21.5 mg·min/mL
- Clearance Cl- [30]: 12.8 mL/min
- Half-life t1/2- [30]: 10.3 h
- Area under drug concentration curve AUC- [30]: 17.1 mg·min/mL
- Percentage increase in etoposide AUC, mean (cyclosporin 3-h infusion): 106%
- Percentage increase in etoposide AUC, mean (cyclosporin 24-h infusion): 89%
- Median area under the concentration time curve for etoposide (with high-dose cyclosporin): 12.5 mg·min/mL
- Median area under the concentration time curve for etoposide (without cyclosporin): 7.2 mg·min/mL
SMILES: COc1cc([C@@H]2c3cc4c(cc3[C@@H](O[C@@H]3O[C@@H]5CO[C@@H](C)O[C@H]5[C@H](O)[C@H]3O)[C@H]3COC(=O)[C@H]23)OCO4)cc(OC)c1O [etoposide]
